In one experiment the test system is Trypanosoma cruzi. The experiment in a line: microbe, parasite or virus in culture. The class given is functional, organism-based, Tulahuen C4 (LacZ). To be noted: Trypanosoma cruzi, Tulahuen C4 (LacZ), 96 h.
A short description of experiment [1]: cells. The class given is functional, cell-based. The following applies: Rattus norvegicus, L6, 72 h.
Description: DNDI: Cytotoxicity in Vitro, 72 hour, in rat skeletal myoblast cells
Experiment [2] is described as follows: cells. The following applies: Mus musculus, NMRI, BalbC or CD1 mice, Macrophage, 96 h. The experiment is classed as functional, cell-based.
Description: DNDI: Cytotoxicity in Vitro, 96 hour, in mouse macrophages (infected-amastigotes)
Experiment [3] has as its system Trypanosoma brucei rhodesiense. The experiment in a line: microbe, parasite or virus in culture. The experiment is classed as functional, organism-based, STIB 900.
Description: DNDI: HAT in Vitro, 72 hour
For experiment [4], the system named is Leishmania donovani. Put plainly: microbe, parasite or virus in culture. The class given is functional, organism-based, MHOM/ET/67/L82.
Description: DNDI: Leish (axenic) in Vitro, 72 hour
Experiment [5] has as its system Leishmania donovani. The experiment in a line: microbe, parasite or virus in culture. The experiment is classed as functional, organism-based, MHOM/ET/67/L82. To be noted: Leishmania donovani, MHOM/ET/67/L82, 96 h.
Description: DNDI: Leish (macro) in Vitro, 96 hour
Another experiment deals with Plasmodium falciparum. Put plainly: microbe, parasite or virus in culture. The experiment is classed as functional, organism-based, K1.
Where [6] appears, read: Trypanosoma brucei, STIB 900, 72 h.
The mark [7] stands for this setting: Leishmania donovani, MHOM/ET/67/L82, 72 h.
Setting [8] is: Plasmodium falciparum, K1, 72 h.

Structures are written as SMILES. Several values for one entry are separate records, joined by “and”; a condition that tells them apart may be missing. Equal entries are not always repeated.

Description for Plasmodium falciparum: DNDI: Malaria in Vitro, 72 hour
Description for Trypanosoma cruzi: DNDI: Chagas in Vitro, 96 hour

By IC50 is commonly meant the concentration that inhibits the measured activity by half. Read a low IC50 as inhibition by little substance. As to `NNC(=O)c1ccncc1` [ISONIAZID], the IC50 in the experiment with Trypanosoma cruzi is over 656 µM; in “cells [1]” it was over 656 µM; in “cells [2]” it was over 219 µM; in experiment [3], over 729 µM; in experiment [3] (setting [6]), over 656 µM; in the experiment on Leishmania donovani [4] it was over 729 µM. Moreover, the IC50 in the experiment with Leishmania donovani [4] (setting [7]) was over 656 µM; in the experiment with Leishmania donovani [5], over 219 µM; with Plasmodium falciparum, > 36.5 µM and 246 µM.
On to `CC(C)(C)NC(=O)[C@@H]1CN(Cc2cccnc2)CCN1C[C@@H](O)C[C@@H](Cc1ccccc1)C(=O)N[C@H]1c2ccccc2C[C@H]1O`, for which the half-inhibitory concentration (IC50) with Trypanosoma cruzi is 93.5 µM; in the experiment “cells [1]”, over 141 µM; in “cells [2]” it was over 42.3 µM; in experiment [3] (setting [6]) it was 48.2 µM; with Leishmania donovani [4] (setting [7]), over 141 µM; in the experiment on Leishmania donovani [5], over 42.3 µM. The compound also yielded an IC50 in the experiment on Plasmodium falciparum (setting [8]) of 6.03 µM.
As for `CN(C/C=C/C#CC(C)(C)C)Cc1cccc2ccccc12` [TERBINAFINE], the IC50 is 40.9 µM with Trypanosoma cruzi; 47 µM in “cells [1]”; over 91.5 µM in the experiment “cells [2]”; 95.2 µM in experiment [3] (setting [6]); 23 µM in the experiment on Leishmania donovani [4] (setting [7]); 69.5 µM in the experiment with Leishmania donovani [5]. The IC50 in the experiment on Plasmodium falciparum (setting [8]) was 7.72 µM.
As to `CN(C)CCCN1c2ccccc2Sc2ccc(Cl)cc21` [CHLORPROMAZINE], the IC50 is 17.2 µM with Trypanosoma cruzi; 12.3 µM in “cells [1]”; 31.4 µM in “cells [2]”; 1.25 µM in experiment [3] (setting [6]); 48.5 µM with Leishmania donovani [4] (setting [7]); over 9.41 µM in the experiment with Leishmania donovani [5]. Also, in the experiment with Plasmodium falciparum (setting [8]), the IC50 was determined as 3.03 µM.
With `C[C@H]1[C@@H](OC(=O)CCC(=O)O)O[C@@H]2O[C@]3(C)CC[C@H]4[C@H](C)CC[C@@H]1[C@@]24OO3`, the IC50 is 8.97 µM in the experiment with Trypanosoma cruzi; 0.78 µM in “cells [1]”; over 7.8 µM in “cells [2]”; 16.8 µM in experiment [3] (setting [6]); 0.35 µM in the experiment on Leishmania donovani [4] (setting [7]); over 7.8 µM in the experiment on Leishmania donovani [5]. The same compound displayed an IC50 in the experiment on Plasmodium falciparum (setting [8]) of 0.003 µM.
Consider `COC1=CC(=O)C[C@@H](C)[C@]12Oc1c(Cl)c(OC)cc(OC)c1C2=O` [GRISEOFULVIN], for which the IC50 in the experiment with Trypanosoma cruzi is 87.3 µM; in “cells [1]”, 20.5 µM; in the experiment “cells [2]” it was over 85 µM; in experiment [3] (setting [6]), 40 µM; in the experiment on Leishmania donovani [4] (setting [7]) it was 87 µM; in the experiment with Leishmania donovani [5], over 85 µM. The compound also showed an IC50 with Plasmodium falciparum (setting [8]) of 75.1 µM.
With `C[C@@H](c1ncncc1F)[C@](O)(Cn1cncn1)c1ccc(F)cc1F` [VORICONAZOLE], the IC50 in the experiment with Trypanosoma cruzi is 11.2 µM; in “cells [1]”, 195 µM; in the experiment “cells [2]”, over 85.9 µM; in experiment [3] (setting [6]) it was over 286 µM; in the experiment on Leishmania donovani [4] (setting [7]), over 286 µM; with Leishmania donovani [5] it was over 85.9 µM. For the same compound, in the experiment on Plasmodium falciparum (setting [8]), the IC50 was over 143 µM.
On to `CN1CC(=O)N2[C@H](c3ccc4c(c3)OCO4)c3[nH]c4ccccc4c3C[C@@H]2C1=O`, for which the IC50 in the experiment with Trypanosoma cruzi is 8.6 µM; in “cells [1]”, 221 µM; in the experiment “cells [2]”, over 77 µM; in experiment [3] (setting [6]), 97.6 µM; in the experiment on Leishmania donovani [4] (setting [7]) it was 40.1 µM; in the experiment with Leishmania donovani [5], over 77 µM. This compound also displayed an IC50 with Plasmodium falciparum (setting [8]) of over 12.8 µM.
With `CCC[C@@H]1C[C@@H](C(=O)N[C@H]([C@@H]2O[C@H](SC)[C@H](O)[C@@H](O)[C@H]2O)[C@@H](C)O)N(C)C1`, the IC50 in the experiment with Trypanosoma cruzi is over 221 µM; in the experiment “cells [1]”, over 221 µM; in “cells [2]” it was over 73.8 µM; in experiment [3] (setting [6]) it was over 221 µM; in the experiment with Leishmania donovani [4] (setting [7]) it was over 221 µM; with Leishmania donovani [5] it was over 73.8 µM. The compound further showed an IC50 in the experiment with Plasmodium falciparum (setting [8]) of 7.08 µM.
Consider `c1ccc(-c2ccc(C(c3ccccc3)n3ccnc3)cc2)cc1` (centres undefined) [BIFONAZOLE], for which the IC50 with Trypanosoma cruzi was 0.003 µM; in the experiment “cells [1]” it was 39.3 µM; in the experiment “cells [2]” it was over 32.2 µM; in experiment [3] (setting [6]), 26.8 µM; in the experiment on Leishmania donovani [4] (setting [7]), 5.48 µM; in the experiment with Leishmania donovani [5], over 32.2 µM. The same compound displayed an IC50 in the experiment on Plasmodium falciparum (setting [8]) of 3.18 µM.
As to `O=C(Nc1ccc([N+](=O)[O-])cc1Cl)c1cc(Cl)ccc1O` [NICLOSAMIDE], the IC50 with Trypanosoma cruzi was 2.49 µM; in the experiment “cells [1]”, 2.3 µM; in “cells [2]”, 1.01 µM; in experiment [3] (setting [6]), 1.67 µM; in the experiment with Leishmania donovani [4] (setting [7]), 0.15 µM; with Leishmania donovani [5], over 0.31 µM. The compound further came in with an IC50 in the experiment with Plasmodium falciparum (setting [8]) of 1.14 µM.

The record behind these values is ChEMBL document CHEMBL3392926, “Antiprotozoal Activity Profiling of Approved Drugs: A Starting Point toward Drug Repositioning”.
